In patent US9061984B2 (University of Louisville Research Foundation, Inc., priority 2008, dated 2015):
In brackets after ≈: the same amount, converted by molar mass. Like-named read-outs stand apart in the source and are kept apart here.

What was measured:
[1] = tested on: axenic amastigotes of L. amazonensis (strain MHOM/BR/76/LTB-012); experiment: microbe, parasite or virus in culture; conditions: Leishmania amazonensis
[2] = tested on: Trypanosoma cruzi (Tulahuen C4); experiment: In vitro anti-T. cruzi activity (β-galactosidase CPRG colorimetric assay in VERO monolayer); format: cell-based; conditions: for inhibition at 10 µg/mL / IC50: Trypanosoma cruzi, TULAHUEN, Vero; for inhibition at 10 µg/mL: 120 h, 10 μg/mL of each compound, 120 hours, read-out: T. cruzi Inhib. (%); for Selectivity Index Lab B: IC50, VERO/IC50, T. cruzi
[3] = Cytotoxicity on VERO cells (MTT), anti-T. cruzi study; conditions: African green monkey, VERO cells
[4] = tested on: VERO cells; experiment: as above; conditions: Chlorocebus sabaeus, Vero, read-out: IC50 VERO, Table 3
[5] = tested on: MCF-7 cells; experiment: Cell growth inhibition bioassay (sulforhodamine B); format: cell-based, human; conditions: Homo sapiens, MCF7; 48 h, SRB; read-out: GI50 in indicated cell line: MCF-7
Experimental: (§1) The cytotoxicity of compounds was assayed as follows. […] Appropriate solvent controls were tested for comparison. The percent inhibition of cell growth relative to the control was evaluated colorimetrically using a sulforhodamine B dye by comparison to the control. The calorimetric procedure followed that published in Skehan et al., J. Nat. Cancer Inst., […], pp. 1107-1112 (1990) and Boyd & Paull, Drug Dev. Res., Vol. 34, pp. 91-109 (1995). […] The cell lines are: 3T3 cells are BALB/3T3 clone A31 embryonic mouse fibroblast cells; H460 cells are human large cell lung cancer cells; DU145 cells are human prostate carcinoma cells; MCF-7 cells are human breast adenocarcinoma cells; M-14 cells are human melanoma cells; HT-29 cells are human colon adenocarcinoma cells; PC3 cells are human prostate adenocarcinoma cells; K562 cells are human chronic myelogenous leukemia cells; and VERO cells are African Green Monkey kidney epithelial cells.

[6] = tested on: K562 cells; experiment: Cell growth inhibition bioassay (sulforhodamine B); format: cell-based, human; conditions: Homo sapiens, K562; 48 h, SRB; read-out: GI50 in indicated cell line: K562
Experimental: as §1

[7] = tested on: H460 cells; experiment: Cell growth inhibition bioassay (sulforhodamine B); format: cell-based, human; conditions: Homo sapiens, NCI-H460; 48 h, SRB; read-out: GI50 in indicated cell line: H460
Experimental: as §1

[8] = tested on: M-14 cells; experiment: Cell growth inhibition bioassay (sulforhodamine B); format: cell-based, human; conditions: Homo sapiens, M14; 48 h, SRB; read-out: GI50 in indicated cell line: M-14
Experimental: as §1

[9] = tested on: HT-29 cells; experiment: Cell growth inhibition bioassay (sulforhodamine B); format: cell-based, human; conditions: Homo sapiens, HT-29; 48 h, SRB; read-out: GI50 in indicated cell line: HT-29
Experimental: as §1

[10] = tested on: DU145 cells; experiment: Cell growth inhibition bioassay (sulforhodamine B); format: cell-based, human; conditions: Homo sapiens, DU-145; 48 h, SRB; read-out: GI50 in indicated cell line: DU145
Experimental: as §1

[11] = tested on: M. tuberculosis H37Rv; experiment: Conventional aerobic (MABA) culture assay, luminescence MIC; format: cell-based, Mycobacterium tuberculosis; conditions: Mycobacterium tuberculosis, 168 h; aerobic, 7 days, H37Rv
[12] = Toxicity to peritoneal macrophages (Trypan Blue count); format: cell-based, BALB/C mouse; conditions: BALB/C, mouse, Cytotoxicity Macrophages IC50
Experimental: Peritoneal macrophages were prepared as follows. Non-inflammatory macrophages (10^6) were collected from each BALB/C mouse. The cells adhered at 37° C. after 2 h under 5% CO2 in a CO2 incubator. The plates were then rinsed two to three times with 0.5 mL of RPMI+buffer MOPS without fetal calf serum to eliminate non-adhering cells. The supernatant on the plates was replaced by fresh medium (RPMI+glutamine+FCS+antibiotics), 0.5 mL of medium per well. To determine the toxicity of the compounds to macrophages, dilutions of compounds were added on a part of the macrophages prepared above. […] The medium was then removed and 1 μL of sterile Trypan Blue was added. Cover glasses N° 1 were left where cells were plated and then the number of macrophages in a microscope was determined with a haemocytometer. All experiments were performed in triplicate.

[13] = tested on: 3T3 cells; experiment: Cell growth inhibition bioassay (sulforhodamine B); format: cell-based, mouse; conditions: Mus musculus, NIH3T3; 48 h, SRB; read-out: GI50 in indicated cell line: 3T3
Experimental: as §1

[14] = tested on: VERO cells; experiment: Cell growth inhibition bioassay (sulforhodamine B); format: cell-based, African Green Monkey; conditions: Chlorocebus sabaeus, Vero; 48 h, SRB; read-out: GI50 in indicated cell line: VERO
Experimental: as §1

[15] = tested on: axenic amastigotes of L. amazonensis (strain MHOM/BR/76/LTB-012); conditions: Table 8b
[16] = 72 h, read-out: IC50 L. amazonensis
[17] = Table 2, read-out: IC50 - T. cruzi
[18] = Table 3, read-out: IC50 T. cruzi
[19] = IC50 - VERO Cytotoxicity, Table 2
[20] = Lab B, read-out: T. cruzi IC50 Lab B
[21] = Lab A, read-out: T. cruzi IC50 Lab A

SMILES	IC50 [1, 16]	inhibition at 10 µg/mL [2]	IC50 [2, 17]	IC50 [2, 18]	IC50 [3, 19]	IC50 [4]	GI50 [5]	GI50 [6]	GI50 [7]	GI50 [8]	GI50 [9]	GI50 [10]	IC50 ([1]; read-out: L. amazonensis IC50)	Selectivity Index Lab B ([2]; Lab B)	IC50 [2, 20]	MIC [11]	IC50 at 48 h [12]	IC50 ([3]; Cytotoxicity VERO Lab B, Lab B)	GI50 [13]	GI50 [14]	also measured
C=CCOc1cc(OC)c(C(=O)/C=C/c2ccc(O)cc2)c(OCC=C)c1 [Compound I-09, (2E)-1-[2-Methoxy-4,6-bis(2-propenyloxy)phenyl]-3-(4-hydroxyphenyl)-2-propen-1-one]	85.2 µM	52.6%	7.44 µg/mL	20.3 µM	28 µg/mL (≈ 76.4 µM)	76.4 µM															
C=CCOc1cc(OC)c(C(=O)/C=C/c2ccc(C(F)(F)F)cc2)c(OCC=C)c1 [Compound I-12, (2E)-1-[2-Methoxy-4,6-bis(2-propenyloxy)phenyl]-3-[4-(trifluoromethyl)phenyl]-2-propen-1-one]	128 µM	64.2%	6.53 µg/mL	15.6 µM	3 µg/mL (≈ 7.17 µM)	7.2 µM															
C=CCOc1cc(OC)c(C(=O)/C=C/c2ccc(OC)cc2OC)c(OCC=C)c1 [Compound I-17, (2E)-3-(2,4-Dimethoxyphenyl)-1-[2-methoxy-4,6-bis(2-propenyloxy)phenyl]-2-propen-1-one]	134 µM	67.8%	5.38 µg/mL	13.1 µM	38 µg/mL (≈ 92.6 µM)	92.6 µM															
C=CCOc1cc(OC)c(C(=O)/C=C/c2ccc(C)cc2)c(OCC=C)c1 [Compound I-24, (2E)-1-[2-Methoxy-4,6-bis(2-propenyloxy)phenyl]-3-(4-methylphenyl)-2-propen-1-one]	79.8 µM	60.2%	6.28 µg/mL	17.2 µM	77 µg/mL (≈ 211 µM)	211 µM															
C=CCOc1cc(OC)c(C(=O)/C=C/c2cc(OCC=C)c(Br)c(OCC=C)c2)c(OCC=C)c1 [Compound I-25, (2E)-3-(3,5-Bis(2-propenyloxy)-4-bromophenyl)-1-[2-methoxy-4,6-bis(2-propenyloxy)phenyl]-2-propen-1-one]	> 180 µM	51.2%	3.73 µg/mL	6.9 µM	52 µg/mL (≈ 96 µM)	96.3 µM															
C=CCOc1cc(OC)c(C(=O)/C=C/c2ccncc2)c(OCC=C)c1 [Compound I-26, (2E)-1-[2-Methoxy-4,6-bis(2-propenyloxy)phenyl]-3-(4-pyridinyl)-2-propen-1-one]	0.6 µM	73.6%	0.52 µg/mL	1.5 µM	1 µg/mL (≈ 2.85 µM)	2.8 µM															
C=CCOc1cc(OC)c(C(=O)/C=C/c2ccco2)c(OCC=C)c1 [Compound I-28, (2E)-3-(2-furanyl)-1-[2-methoxy-4,6-bis(2-propenyloxy)phenyl]-2-propen-1-one]	> 300 µM	59.1%	4.14 µg/mL	12.2 µM	65 µg/mL (≈ 191 µM)	191 µM															
C(=N/Nc1ncnc2sc3c(c12)CCCC3)/c1cccc2ccccc12 [II-02]							2.3 µg/mL (≈ 6.42 µM)	1.7 µg/mL (≈ 4.74 µM)	7.1 µg/mL (≈ 19.8 µM)	6.6 µg/mL (≈ 18.4 µM)	2.2 µg/mL (≈ 6.14 µM)	8.6 µg/mL (≈ 24 µM)	4.6 µM	0.2	4.7 µg/mL	> 100 µg/mL	6 µM	1 µg/mL (≈ 2.79 µM)	6 µg/mL (≈ 16.7 µM)	4.3 µg/mL (≈ 12 µM)	Selectivity Index [15]: 1.3
C(=N/Nc1ncnc2sc3c(c12)CCCC3)/c1ccc2ccccc2c1 [II-03]							3.3 µg/mL (≈ 9.21 µM)	2.2 µg/mL (≈ 6.14 µM)	7.4 µg/mL (≈ 20.6 µM)	12.6 µg/mL (≈ 35.1 µM)	6.9 µg/mL (≈ 19.2 µM)	8.7 µg/mL (≈ 24.3 µM)	14 µM	1.1	4.8 µg/mL	> 100 µg/mL	5.7 µM	5 µg/mL (≈ 13.9 µM)	10 µg/mL (≈ 27.9 µM)	2.9 µg/mL (≈ 8.09 µM)	Selectivity Index [15]: 0.4
CC(C)c1ccc(/C=N\Nc2ncnc3sc4c(c23)CCCC4)cc1 [II-07]							1.8 µg/mL (≈ 5.14 µM)	1.4 µg/mL (≈ 3.99 µM)	2.1 µg/mL (≈ 5.99 µM)	6.2 µg/mL (≈ 17.7 µM)	2.1 µg/mL (≈ 5.99 µM)	3.8 µg/mL (≈ 10.8 µM)	1.3 µM	0.5	1.8 µg/mL	> 100 µg/mL	3 µM	1 µg/mL (≈ 2.85 µM)	3.3 µg/mL (≈ 9.42 µM)	2.1 µg/mL (≈ 5.99 µM)	IC50 [2, 21]: 0.9 µg/mL; Selectivity Index [15]: 2.3
CC(C)(C)c1ccc(/C=N\Nc2ncnc3sc4c(c23)CCCC4)cc1 [II-08]							2.3 µg/mL (≈ 6.31 µM)	2.3 µg/mL (≈ 6.31 µM)	2.3 µg/mL (≈ 6.31 µM)	11 µg/mL (≈ 30.2 µM)	5.7 µg/mL (≈ 15.6 µM)	8 µg/mL (≈ 21.9 µM)	0.6 µM	1.2	4.1 µg/mL	> 100 µg/mL	2.4 µM	5 µg/mL (≈ 13.7 µM)	8.4 µg/mL (≈ 23 µM)	2.5 µg/mL (≈ 6.86 µM)	IC50 [2, 21]: 1.3 µg/mL; Selectivity Index [15]: 3.8
C(=N/Nc1ncnc2sc3c(c12)CCCC3)/c1ccc2c(c1)OCO2 [II-12]							41.4 µg/mL (≈ 117 µM)	> 93.8 µg/mL	> 93.8 µg/mL	> 93.8 µg/mL	> 93.8 µg/mL	> 93.8 µg/mL	10.4 µM	0.7	8 µg/mL	> 100 µg/mL	5.7 µM	6 µg/mL (≈ 17 µM)	> 93.8 µg/mL	> 93.8 µg/mL	IC50 [2, 21]: 2.3 µg/mL; Selectivity Index [15]: 0.6
COc1ccc(/C=N\Nc2ncnc3sc4c(c23)CCCC4)c(OC)c1 [II-13]							7.8 µg/mL (≈ 21.2 µM)	2.9 µg/mL (≈ 7.87 µM)	10.9 µg/mL (≈ 29.6 µM)	34.8 µg/mL (≈ 94.4 µM)	7.4 µg/mL (≈ 20.1 µM)	7.4 µg/mL (≈ 20.1 µM)	12.2 µM	1.8	6.8 µg/mL	> 100 µg/mL	53 µM	12 µg/mL (≈ 32.6 µM)	7.3 µg/mL (≈ 19.8 µM)	17.7 µg/mL (≈ 48 µM)	Selectivity Index [15]: 4.3
C=CCOc1cc(/C=N\Nc2ncnc3sc4c(c23)CCCC4)cc(OCC=C)c1Br [II-17]							1.9 µg/mL (≈ 3.8 µM)	2 µg/mL (≈ 4 µM)	1.6 µg/mL (≈ 3.2 µM)	6.4 µg/mL (≈ 12.8 µM)	1.9 µg/mL (≈ 3.8 µM)	< 0.98 µg/mL	2.6 µM	0.4	7.7 µg/mL	> 100 µg/mL	1.7 µM	3 µg/mL (≈ 6.01 µM)	< 0.98 µg/mL	2.2 µg/mL (≈ 4.4 µM)	IC50 [2, 21]: 10.2 µg/mL; Selectivity Index [15]: 0.7
CC1CS(=O)(=O)CCN1/N=C/c1ccc([N+](=O)[O-])o1 (stereo not drawn) [Nifurtimox, reference compound]				0.52 µM		80.1 µM															
